According to patent publication US12043602B2, “Fendiline derivatives” (The Board of Regents of the University of Texas System, priority 2019, dated 2024):

Key:
BxPC-3 tumors = test: In vivo tumor growth assay (xenograft); design: species or system nu/nu mice; conditions: 12.5 mg/kg intraperitoneally
Protocol: FIG. 4. Inhibition of tumor growth in vivo by fendiline. Nu/nu mice implanted with BxPC-3 or MIAPaCa-2 tumors were treated with vehicle (DMSO) or fendiline (12.5 mg/kg) intraperitoneally and tumor sizes were measured with an external caliper every 3-4 days. Time and fendiline treatment affected MiaPaCa2 xenograft growth (2-way ANOVA, p=0.027).
Early passage BxPC-3 or MIAPaCa-2 cells were harvested, and 2-3X106 cells were implanted into the right flanks of nu/nu mice. The animals were randomized into control and treated groups (10 mice per group). Tumor volume (V) was measured with an external caliper every 3-4 days and it was calculated as V=0.52 (length×width2). Drug treatment was initiated 4 days after tumor implantation. Drugs were injected daily intraperitoneally (at doses indicated) for 5 days, with 2 days of no treatment in between. All treatments were continued until any of the subcutaneous tumors reached 1500 mm3 in volume or for 6 weeks (whichever was first), when all the animals were sacrificed and the tumors removed.

human ASM (SMPD1)-GFP = human ASM (SMPD1)-GFP (Homo sapiens (Human), UniProt P17405); test: ASM activity assay (Amplex Red SMase kit, lysates of treated cells); assay type: cell-based; conditions: 5 μM compound for 48 h
Chain of human ASM (SMPD1)-GFP (P17405 47-631): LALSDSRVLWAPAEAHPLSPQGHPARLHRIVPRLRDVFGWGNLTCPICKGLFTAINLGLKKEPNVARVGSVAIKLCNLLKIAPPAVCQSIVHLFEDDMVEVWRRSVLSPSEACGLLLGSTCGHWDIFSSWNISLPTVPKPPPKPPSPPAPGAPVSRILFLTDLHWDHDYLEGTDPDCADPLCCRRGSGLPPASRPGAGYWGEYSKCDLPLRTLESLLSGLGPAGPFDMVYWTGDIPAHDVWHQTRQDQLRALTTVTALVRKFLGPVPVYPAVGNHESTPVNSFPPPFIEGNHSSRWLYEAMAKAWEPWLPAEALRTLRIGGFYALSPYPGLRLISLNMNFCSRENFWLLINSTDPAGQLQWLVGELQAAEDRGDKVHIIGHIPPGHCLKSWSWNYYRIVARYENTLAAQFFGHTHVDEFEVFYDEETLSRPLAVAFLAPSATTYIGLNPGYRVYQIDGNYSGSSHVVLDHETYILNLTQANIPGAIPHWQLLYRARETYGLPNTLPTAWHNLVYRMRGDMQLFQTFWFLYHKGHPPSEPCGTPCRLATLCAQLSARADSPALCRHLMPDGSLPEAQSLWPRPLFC
Protocol: FIG. 6A-C. (A) Dose response curves quantifying the extent of KRASG12V and LactC2 mislocalization after 48 h treatment with compounds. Mislocalization was quantified using Manders coefficients as the fraction of mCherry-CAAX co-localizing with mGFP-KRASG12V or GFP-LactC2. (B) ASM activity in cell stably expressing GFP-tagged SMPD1 treated with DMSO or 5 μM compound for 48 h. (C) Representative western blots and quantitation of SMPD1-GFP levels in cells treated with 5 μM compounds for 48 h. (D) Representative confocal images of MDCK cells stably co-expressing mGFP-KRASG12V and mCherry-CAAX treated with 10 μM compound 6 or 1 μM of compounds 12f (NY0244), 12h (NY0331) or 22 (NY0335) for 48 h (-ASM), then incubated with recombinant ASM in the continued presence of drugs for a further 60 min (+ASM). Mislocalization was quantified using Manders coefficients as the fraction of mCherry-CAAX co-localizing with mGFP-KRASG12V.
ASM Activity Assay. The ASM activity assay was performed with Amplex Red SMase Assay Kit (A12220; Invitrogen; Carlsbad, CA) according to the manufacturer's instructions. […] The plate was further incubated in the dark in 37° C. for 60 min, and the fluorescence was measured using BioTek Synergy H1 microplate reader (excitation λ=540 nm, emission λ=590 nm). […]

SMILES: CC(NCCC(c1ccccc1)c1ccccc1)c1ccccc1 (centres unmarked) [Fendiline]
- BxPC-3 xenograft growth (BxPC-3 tumors): No significant effects

SMILES: COc1ccc([C@@H](C)N(CC=C(c2ccccc2)c2ccccc2)CCN2CCCC2)cc1 [NY0331, (R)-N-(1-(4-methoxyphenyl)ethyl)-3,3-diphenyl-N-(2-(pyrrolidin-1-yl)ethyl)prop-2-en-1-amine]
- inhibition of ASM (human ASM (SMPD1)-GFP): most potent
